# Experimental data taken from US11091501B2, “Heterocyclic compounds as RSV inhibitors” (Enanta Pharmaceuticals, Inc., priority 2017, dated 2021).
# System: Human RSV-A (“Long” strain)
# Assay: RSV in vitro cytoprotection assay (CPE, ATPlite) in HEp-2 cells
# Type: cell-based
# Settings: human respiratory syncytial virus, 96 h; HEp-2 cells, 4-day incubation, ATPlite readout; read-out: Human RSV-A (“Long” strain) EC50
# From the text: RSV is a single stranded negative sense RNA virus that causes respiratory tract infections which can be dangerous to infants, the elderly, and immunosuppressed individuals. Currently there is no vaccine, and therapeutic options are both costly and of limited effectiveness. These approved treatments are Ribavirin, and Palivizumab/Synagis (a monoclonal antibody). RSV has two genotypes, A and B, which differ primarily in the structure of the virus' surface “G” attachment protein. Our current primary screen focuses on RSV-A and uses an in vitro cytoprotection assay where compounds are added in 2-fold dilutions to cells which are then subjected to fully replicative viral particles. Cell viability is measured several days later along with separate measurements of compound cytotoxicity. This report focuses on the results of our most recent screening of compounds.
# HEp-2 cells, (originally derived from tumors grown in irradiated-cortisonised weanling rats that had been injected with epidermoid carcinoma tissue from a person's larynx, but later found to be indistinguishable from HeLa cells by PCR DNA analysis), were used for the culturing of genotype A, “Long” strain RSV. Flasks were inoculated with RSV and viral stocks were collected once cytopathic effect (CPE) was greater than 90%. Viral stocks in 25% sucrose media were snap frozen using liquid nitrogen to increase viral stability. Viral stock titers were quantified by tissue culture infectious dose 50% (TCID50) using 8,000 cells per well and 3-fold viral dilutions across a 96-well plate, cultured for 4 days.
# Following extensive parameter testing, the final assay is run as follows: HEp-2 cells are seeded into the inner 60 wells of a 96-well plate at 8,000 cells per well in a volume of 50 μL using Growth Media (DMEM without phenol red, 1% L-Glut, 1% Penn/Strep, 1% nonessential amino acids, 10% FBS). 2-Fold serial dilutions of control and test compounds are added to the wells in duplicate in a total volume of 25 μL. Viral stock is then added to the wells in a volume of […] the total volume of each well to 100 μL. Each 96-well plate has a control column of 6 wells with cells and virus but no compound (negative control, max CPE), a column with cells but no compound or virus (positive control, minimum CPE), and a column with no cells or virus or compound (background plate/reagent control). The control wells with cells but no virus are given an additional 25 uL of growth media containing an equal quantity of sucrose as those wells receiving the viral stock in order to keep consistent in media and volume conditions. The outer wells of the plate are filled with 125 μL of growth media to act as a thermal and evaporative moat around the test wells. Following a 4-day incubation period, the plates are read using ATPlite (50 uL added per well), which quantifies the amount of ATP (a measure of cell health) present in each well. Assay plates are read using the Envision luminometer. In parallel, cytotoxicity is examined on an additional 96-well plate treated in an identical manner, but substituting the 25 μL of viral stock for 25 μL of growth media. […] EC50 ranges are as follows: A<0.01 μM; B 0.01-0.05 μM; C>0.05 μM.
row,SMILES,EC50
1,Cc1cnc(N2CC3(CCOCC3)C2)c(C(=O)Nc2ccc(C(=O)N3CCc4cc(C(=O)Nc5cccnn5)sc4-c4ccc(F)cc43)cc2)c1 [Example 126],< 10 nM
2,Cc1cnc(N2CC3(CCOCC3)C2)c(C(=O)Nc2ccc(C(=O)N3CCc4cc(-c5c[nH]c6ccc(Cl)cc56)sc4-c4ccc(F)cc43)cc2)c1 [Example 174],> 50 nM
3,O=C(Nc1c(F)cc(F)cc1Cl)c1cc2c(s1)-c1ccc(F)cc1N(C(=O)c1ccc(NC(=O)c3cc4ccccc4nc3N3CCCS(=O)(=O)CC3)cc1)CC2 [Example 34],> 50 nM
4,O=C(Nc1c(F)cc(F)cc1F)c1nc2c(s1)-c1ccccc1N(C(=O)c1ccc(NC(=O)c3cccnc3N3CC4(CCOCC4)C3)cc1)CC2 [Example 105],10 to 50 nM
5,Cc1cnc(N2CC3(CCOCC3)C2)c(C(=O)Nc2ccc(C(=O)N3CCc4cc(-c5ncc(C)[nH]5)sc4-c4ccc(F)cc43)cc2)c1 [Example 187],< 10 nM
6,Cc1cnc(N2CC3(CCOCC3)C2)c(C(=O)Nc2ccc(C(=O)N3CCc4sc(C(=O)Nc5c(F)cccc5F)cc4-c4ccccc43)cc2)c1 [Example 261],< 10 nM
7,Cc1cnc(N2CC3(CCOCC3)C2)c(C(=O)Nc2ccc(C(=O)N3CCc4c(sc(C(=O)Nc5nc(C)ccc5F)c4F)-c4ccccc43)cc2)c1 [Example 219],< 10 nM
8,O=C(Nc1c(F)cc(F)cc1F)c1cc2c(s1)-c1ccc(F)cc1N(C(=O)c1ccc(NC(=O)c3cccnc3N3CC4(CCOCC4)C3)cc1)CC2 [Example 22],< 10 nM
9,Cc1cnc(N2CC3(CCOCC3)C2)c(C(=O)Nc2ccc(C(=O)N3CCc4cc(C(=O)Nc5c(F)cccc5F)oc4-c4ccc(F)cc43)cc2)c1 [Example 234],< 10 nM
10,O=C(Nc1c(F)cc(F)cc1F)c1cc2c(s1)-c1ccc(F)cc1N(C(=O)c1ccc(NC(=O)c3cc4c(nc3N3CC5(CCOCC5)C3)CCC4)cc1)CC2 [Example 67],< 10 nM
11,O=C(Nc1c(F)cccc1F)c1cc2c(s1)-c1ccc(F)cc1N(C(=O)c1ccc(NC(=O)c3cccnc3N3C[C@@H]4C[C@H]3CO4)cc1)CC2 [Example 48],10 to 50 nM
12,O=C(Nc1c(F)cc(F)cc1Cl)c1cc2c(s1)-c1ccc(F)cc1N(C(=O)c1ccc(NC(=O)c3cc4ccccc4nc3N3C4CCC3COC4)cc1)CC2 [Example 32],> 50 nM
13,Cc1cnc(N2CC3(CCOCC3)C2)c(C(=O)Nc2ccc(C(=O)N3CCc4cc(-c5nc6ccccc6[nH]5)sc4-c4ccc(F)cc43)cc2)c1 [Example 3],< 10 nM
14,Cc1ccc(C(=O)Nc2ccc(C(=O)N3CCc4cc(C(=O)Nc5c(F)cccc5F)oc4-c4ccccc43)cc2)c(N2CC3(CCOCC3)C2)n1 [Example 254],< 10 nM
15,Cc1cnc(N2CC3(CCOCC3)C2)c(C(=O)Nc2ccc(C(=O)N3CCc4c(sc(C(=O)Nc5ncccc5C(F)(F)F)c4F)-c4ccccc43)cc2)c1 [Example 231],< 10 nM
16,O=C(Nc1c(F)cccc1Cl)c1cc2c(o1)-c1ccccc1N(C(=O)c1ccc(NC(=O)c3cc4c(nc3N3CC5(CCOCC5)C3)CCC4)cc1)CC2 [Example 249],< 10 nM
17,O=C(Nc1c(F)cc(F)cc1F)c1cc2c(o1)-c1ccc(F)cc1N(C(=O)c1ccc(NC(=O)c3cccnc3N3CC4(CCOCC4)C3)cc1)CC2 [Example 100],< 10 nM
18,Cc1cnc(N2CC3(CCOCC3)C2)c(C(=O)Nc2ccc(C(=O)N3CCc4cc(-c5cc[nH]c(=O)c5)sc4-c4ccc(F)cc43)cc2)c1 [Example 183],< 10 nM
19,Cc1cnc(N2CC3(CCOCC3)C2)c(C(=O)Nc2ccc(C(=O)N3CCc4c(sc(C(=O)Nc5cc(F)ccc5F)c4F)-c4ccccc43)cc2)c1 [Example 212],10 to 50 nM
20,O=C(Nc1ccc(C(=O)N2CCc3cc(-c4nc5ccccc5[nH]4)oc3-c3ccc(F)cc32)cc1)c1cc2c(nc1N1CC3(CCOCC3)C1)CCC2 [Example 244],< 10 nM
21,O=C(Nc1c(F)cccc1F)c1cc2c(s1)-c1ccc(F)cc1N(C(=O)c1ccc(NC(=O)c3cc(F)cnc3N3CC4(CCOCC4)C3)cc1)CC2 [Example 35],< 10 nM
22,Cc1cnc(N2CC3(CCOCC3)C2)c(C(=O)Nc2ccc(C(=O)N3CCc4cc(NC(=O)c5ccccc5F)sc4-c4ccccc43)cc2)c1 [Example 285],< 10 nM
23,O=C(Nc1ccccc1)c1cc2c(o1)-c1ccccc1N(C(=O)c1ccc(NC(=O)c3cc4c(nc3N3CC5(CCOCC5)C3)CCC4)cc1)CC2 [Example 246],< 10 nM
24,Cc1ccc(C(=O)Nc2ccc(C(=O)N3CCc4cc(C(=O)Nc5c(C)cccc5C)sc4-c4ccc(F)cc43)cc2)c(N2CC3(CCOCC3)C2)n1 [Example 116],< 10 nM

# Now from value to compound:
row,EC50,SMILES
1,< 10 nM,Cc1cnc(N2CC3(CCOCC3)C2)c(C(=O)Nc2ccc(C(=O)N3CCc4cc(C(=O)Nc5c(C)cccc5C#N)sc4-c4ccc(F)cc43)cc2)c1 [Example 11]
2,> 50 nM,Cc1cnc(N2CC3(CCOCC3)C2)c(C(=O)Nc2ccc(C(=O)N3CCc4cc(-c5c[nH]c6ccc(C)cc56)sc4-c4ccc(F)cc43)cc2)c1 [Example 176]
3,< 10 nM,Cc1cnc(N2CC3(CCOCC3)C2)c(C(=O)Nc2ccc(C(=O)N3CCc4cc(C(=O)Nc5c(F)cc(F)cc5F)sc4-c4ccc(F)cc43)cc2)c1 [Example 13]
4,> 50 nM,Cc1ccc(C(=O)Nc2ccc(C(=O)N3CCc4sc(C(=O)Nc5c(F)cccc5F)cc4-c4ccccc43)cc2)c(N2CC3(CCOCC3)C2)n1 [Example 265]
5,< 10 nM,Cc1cnc(N2CC3(CCOCC3)C2)c(C(=O)Nc2ccc(C(=O)N3CCc4cc(-c5nnco5)sc4-c4ccc(F)cc43)cc2)c1 [Example 141]
6,< 10 nM,Cc1cnc(N2CC3(CCOCC3)C2)c(C(=O)Nc2ccc(C(=O)N3CCc4cc(NC(=O)OC(C)C)sc4-c4ccccc43)cc2)c1 [Example 297]
7,10 to 50 nM,Cc1ccc(C(=O)Nc2ccc(C(=O)N3CCc4c(sc(NC(=O)c5c(F)cccc5F)c4F)-c4ccccc43)cc2)c(N2CC3(CCOCC3)C2)n1 [Example 303]
8,> 50 nM,O=C(Nc1ccc(C(=O)N2CCc3cc(-c4nc5cc(F)c(F)cc5[nH]4)sc3-c3ccc(F)cc32)cc1)c1cccnc1N1CC2(CCOCC2)C1 [Example 41]
9,< 10 nM,Cc1cnc(N2CC3(CCOCC3)C2)c(C(=O)Nc2ccc(C(=O)N3CCc4cc(C(=O)Nc5ncccc5Cl)sc4-c4ccc(F)cc43)cc2)c1 [Example 120]
10,10 to 50 nM,Cc1ccc(C(=O)Nc2ccc(C(=O)N3CCc4cc(NC(=O)OC5CCCC5)sc4-c4ccccc43)cc2)c(N2CC3(CCOCC3)C2)n1 [Example 299]
11,> 50 nM,O=C(Nc1c(F)cccc1F)c1cc2c(s1)-c1ccc(F)cc1N(C(=O)c1ccc(NC(=O)c3cccnc3N3CCCOCC3)cc1)CC2 [Example 51]
12,< 10 nM,Cc1cnc(N2CC3(CCOCC3)C2)c(C(=O)Nc2ccc(C(=O)N3CCc4cc(NC(=O)c5c(F)cccc5Cl)sc4-c4ccccc43)cc2)c1 [Example 282]
13,< 10 nM,Cc1cnc(N2CC3(CCOCC3)C2)c(C(=O)Nc2ccc(C(=O)N3CCc4c(sc(C(=O)Nc5ccccc5)c4F)-c4ccccc43)cc2)c1 [Example 211]
14,10 to 50 nM,Cc1cnc(N2CC3(CCOCC3)C2)c(C(=O)Nc2ccc(C(=O)N3CCc4cc(-c5nnnn5C5CC5)sc4-c4ccc(F)cc43)cc2)c1 [Example 194]
15,> 50 nM,O=C(Nc1c(F)cc(F)cc1Cl)c1cc2c(s1)-c1ccc(F)cc1N(C(=O)c1ccc(NC(=O)c3cc4ccccc4nc3N3CCS(=O)(=O)CC3)cc1)CC2 [Example 33]
16,< 10 nM,Cc1cnc(N2CC3(CCOCC3)C2)c(C(=O)Nc2ccc(C(=O)N3CCc4cc(C(=O)Nc5c(F)cccc5F)sc4-c4ccc(F)cc43)cc2)c1 [Example 12]
17,> 50 nM,O=C(Nc1c(F)cccc1F)c1cc2c(s1)-c1ccc(F)cc1N(C(=O)c1ccc(NC(=O)c3cccnc3-c3ccc(N4CCOCC4)cc3)cc1)CC2 [Example 62]
18,10 to 50 nM,O=C(Nc1c(F)cccc1Cl)c1cc2c(s1)-c1ccc(F)cc1N(C(=O)c1ccc(NC(=O)c3cc(C(F)F)cnc3N3CC4(CCOCC4)C3)cc1)CC2 [Example 145]
19,10 to 50 nM,Cc1ccc(C(=O)Nc2ccc(C(=O)N3CCc4cc(NC(=O)OCC(F)(F)F)sc4-c4ccccc43)cc2)c(N2CC3(CCOCC3)C2)n1 [Example 301]

# Same assay, conditions: human respiratory syncytial virus, HEp-2, 96 h, read-out: Human RSV-A (“Long” strain) EC50
row,SMILES,EC50
1,Cc1ccc(C(=O)Nc2ccc(C(=O)N3CCc4cc(NC(=O)Oc5ccccc5)sc4-c4ccccc43)cc2)c(N2CC3(CCOCC3)C2)n1 [Example 302],> 50 nM
